Data: patent US20150010928A1, “MEANS AND METHODS FOR ASSESSING AN ENDOCRINE DISEASE OR DISORDER” (priority 2012, published 2015)
Marks after values point to notes of the source that are not given here.

System: male rats
Assay: Plasma metabolite profiling (GC-MS, LC-MS, SPE-LC-MS) in male rats dosed once daily over 28 days (OECD 407)
Format: in vivo, rat
Conditions: high dose; for Glycochenodeoxycholic acid / Mannose: Table 15c; for 3,4-Dihydroxyphenylacetic acid (DOPAC) / 18-Hydroxy-11-deoxycorticosterone / Glycerol phosphate, lipid fraction / Homovanillic acid (HVA) / Kynurenic acid / Lysophosphatidylcholine (C18:1) / Lysophosphatidylethanolamine (C22:5) / Phosphate, lipid fraction / Phosphatidylcholine (C18:0,C18:1) / Sphingomyelin (d18:1, C16:0) / Sphingomyelin (d18:1,C23:0) / Sphingomyelin (d18:1,C24:0) / Sphingomyelin (d18:2,C18:0) / TAG No 02 / Taurocholic acid / myo-Inositol, lipid fraction: Table 15d; for Alanine, ratio versus control / Androstenedione, ratio versus control / Glycine, ratio versus control / Heptadecanoic acid (C17:0), ratio versus control / Testosterone, ratio versus control / Threonine, ratio versus control / Uric acid, ratio versus control / alpha-Tocopherol, ratio versus control / Cholesterol, ratio versus control: male rats, plasma
In short: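 Metabolites were measured by GC-MS (derivatised) and reversed-phase LC-MS, with steroids by online SPE-LC-MS, in plasma drawn from fasted rats on days 7, 14 and 28 of once-daily dosing (5/sex/group). Values are ratios versus sex-matched untreated controls, normalized to pool samples, with Welch-test p-values.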

In the case of `C[C@@H]1CC2=CC(=O)CC[C@@H]2[C@H]2CC[C@@]3(C)[C@@H](CC[C@]3(C)O)[C@@H]21` [Mibolerone], the Glycochenodeoxycholic acid (m7, male rats) is reported as 1.31, the Mannose (m7, male rats) is reported as 1.41 * and the “3,4-Dihydroxyphenylacetic acid (DOPAC)” value (m7, male rats) is reported as 0.83 *. The 18-Hydroxy-11-deoxycorticosterone (m7, male rats) was 0.83 *, the “Glycerol phosphate, lipid fraction” value (m7, male rats) was 0.08 * and the “Homovanillic acid (HVA)” value (m7, male rats) was 0.5 *. The Kynurenic acid (m7, male rats) was 0.73 *, the “Lysophosphatidylcholine (C18:1)” value (m7, male rats) was 0.53 * and the “Lysophosphatidylethanolamine (C22:5)” value (m7, male rats) was 0.54 *. The “Phosphate, lipid fraction” value (m7, male rats) was 0.32 *, the “Phosphatidylcholine (C18:0,C18:1)” value (m7, male rats) was 0.19 * and the “Sphingomyelin (d18:1, C16:0)” value (m7, male rats) was 0.12 *. The “Sphingomyelin (d18:1,C23:0)” value (m7, male rats) was 0.07 *, the “Sphingomyelin (d18:1,C24:0)” value (m7, male rats) was 0.1 * and the “Sphingomyelin (d18:2,C18:0)” value (m7, male rats) was 0.17 *. The “TAG No 02” value (m7, male rats) was 0.34 *, the Taurocholic acid (m7, male rats) was 1.11 and the “myo-Inositol, lipid fraction” value (m7, male rats) was 0.08 *. The Glycochenodeoxycholic acid (m14, male rats) was 2.14 *, the Mannose (m14, male rats) was 1.08 * and the “3,4-Dihydroxyphenylacetic acid (DOPAC)” value (m14, male rats) was 0.96. For the same compound, the 18-Hydroxy-11-deoxycorticosterone (m14, male rats) was 0.93, the “Glycerol phosphate, lipid fraction” value (m14, male rats) was 0.35 * and the “Homovanillic acid (HVA)” value (m14, male rats) was 0.69 *. For the same compound, the Kynurenic acid (m14, male rats) was 0.5, the “Lysophosphatidylcholine (C18:1)” value (m14, male rats) was 0.81 * and the “Lysophosphatidylethanolamine (C22:5)” value (m14, male rats) was 0.87. The “Phosphate, lipid fraction” value (m14, male rats) was 0.62 *, the “Phosphatidylcholine (C18:0,C18:1)” value (m14, male rats) was 0.61 * and the “Sphingomyelin (d18:1, C16:0)” value (m14, male rats) was 0.37 *. The “Sphingomyelin (d18:1,C23:0)” value (m14, male rats) was 0.53 *, the “Sphingomyelin (d18:1,C24:0)” value (m14, male rats) was 0.63 * and the “Sphingomyelin (d18:2,C18:0)” value (m14, male rats) was 0.3 *. For the same compound, the “TAG No 02” value (m14, male rats) was 0.24 *, the Taurocholic acid (m14, male rats) was 0.62 * and the “myo-Inositol, lipid fraction” value (m14, male rats) was 0.29 *. For the same compound, the Glycochenodeoxycholic acid (m28, male rats) was 5.73 *, the Mannose (m28, male rats) was 1.07 * and the “3,4-Dihydroxyphenylacetic acid (DOPAC)” value (m28, male rats) was 0.79 *. The 18-Hydroxy-11-deoxycorticosterone (m28, male rats) was 0.63 *, the “Glycerol phosphate, lipid fraction” value (m28, male rats) was 0.7 and the “Homovanillic acid (HVA)” value (m28, male rats) was 0.6 *. The Kynurenic acid (m28, male rats) was 0.54 *, the “Lysophosphatidylcholine (C18:1)” value (m28, male rats) was 0.91 * and the “Lysophosphatidylethanolamine (C22:5)” value (m28, male rats) was 0.85 *. For the same compound, the “Phosphate, lipid fraction” value (m28, male rats) was 0.81 *, the “Phosphatidylcholine (C18:0,C18:1)” value (m28, male rats) was 1.1 and the “Sphingomyelin (d18:1, C16:0)” value (m28, male rats) was 0.51 *. For the same compound, the “Sphingomyelin (d18:1,C23:0)” value (m28, male rats) was 1.09, the “Sphingomyelin (d18:1,C24:0)” value (m28, male rats) was 1.01 and the “Sphingomyelin (d18:2,C18:0)” value (m28, male rats) was 0.33 *. The “TAG No 02” value (m28, male rats) was 0.23 *, the Taurocholic acid (m28, male rats) was 0.75 * and the “myo-Inositol, lipid fraction” value (m28, male rats) was 0.5 *. For the same compound, the “Alanine, ratio versus control” value (day 7) was 0.72 *, the “Androstenedione, ratio versus control” value (day 7) was 0.05 * and the “Glycine, ratio versus control” value (day 7) was 0.86 *. The “Heptadecanoic acid (C17:0), ratio versus control” value (day 7) was 0.37 *, the “Testosterone, ratio versus control” value (day 7) was 0.07 * and the “Threonine, ratio versus control” value (day 7) was 0.76 *. The “Uric acid, ratio versus control” value (day 7) was 0.66 *, the “alpha-Tocopherol, ratio versus control” value (day 7) was 0.07 * and the “Alanine, ratio versus control” value (day 14) was 0.93 *. The “Androstenedione, ratio versus control” value (day 14) was 0.96^, the “Cholesterol, ratio versus control” value (day 14) was 0.27 * and the “Glycine, ratio versus control” value (day 14) was 0.86^. For the same compound, the “Heptadecanoic acid (C17:0), ratio versus control” value (day 14) was 0.57 *, the “Testosterone, ratio versus control” value (day 14) was 0.68 * and the “Threonine, ratio versus control” value (day 14) was 1.02^. For the same compound, the “Uric acid, ratio versus control” value (day 14) was 0.7 *, the “alpha-Tocopherol, ratio versus control” value (day 14) was 0.33 * and the “Alanine, ratio versus control” value (day 28) was 1.14^. For the same compound, the “Androstenedione, ratio versus control” value (day 28) was 0.46 *, the “Cholesterol, ratio versus control” value (day 28) was 0.52 * and the “Glycine, ratio versus control” value (day 28) was 0.72 *. The “Heptadecanoic acid (C17:0), ratio versus control” value (day 28) was 0.82 *, the “Testosterone, ratio versus control” value (day 28) was 0.26 * and the “Threonine, ratio versus control” value (day 28) was 1.04^. The “Uric acid, ratio versus control” value (day 28) was 0.5 * and the “alpha-Tocopherol, ratio versus control” value (day 28) was 0.64 *.
